From ChEMBL document CHEMBL1156482, “Molecular mechanism of action of monocyclam versus bicyclam non-peptide antagonists in the CXCR4 chemokine receptor” (J Biol Chem, 2007)

Experiments:
[1] = biological target: C-X-C chemokine receptor type 4 (Homo sapiens, UniProt P61073, Q200A); test: (§1) Antagonist activity at human CXCR4 Q200A mutant expressed in COS7 cells coexpressing G protein Gqi4myr assessed as inhibition of CXCL12-induced phosphatidylinositol turnover; format: functional, cell-based, COS-7
[2] = tested on: C-X-C chemokine receptor type 4 (Homo sapiens), P61073 [Q200A]; test: as §1; format: functional, cell-based; details: COS-7
[3] = tested on: C-X-C chemokine receptor type 4 (Homo sapiens), P61073 [I284A]; test: (§2) Antagonist activity at human CXCR4 I284A mutant expressed in COS7 cells coexpressing G protein Gqi4myr assessed as inhibition of CXCL12-induced phosphatidylinositol turnover; format: functional, cell-based; details: COS-7
Sequence of C-X-C chemokine receptor type 4 (Homo sapiens), P61073 [I284A] (P61073 whole entry I284A): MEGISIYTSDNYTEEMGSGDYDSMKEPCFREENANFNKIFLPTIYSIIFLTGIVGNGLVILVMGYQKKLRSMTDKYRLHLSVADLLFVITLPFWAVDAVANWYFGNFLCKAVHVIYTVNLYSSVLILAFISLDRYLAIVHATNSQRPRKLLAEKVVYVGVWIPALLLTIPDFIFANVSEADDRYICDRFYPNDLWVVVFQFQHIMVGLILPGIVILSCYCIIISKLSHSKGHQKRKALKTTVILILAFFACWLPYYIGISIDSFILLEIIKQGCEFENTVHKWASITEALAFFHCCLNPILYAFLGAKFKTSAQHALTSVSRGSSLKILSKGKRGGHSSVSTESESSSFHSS

[4] = biological target: C-X-C chemokine receptor type 4 (Homo sapiens, UniProt P61073, I284A); test: as §2; format: functional, cell-based, COS-7
Sequence of C-X-C chemokine receptor type 4 (Homo sapiens, UniProt P61073, I284A) (P61073 whole entry I284A): as above

[5] = tested on: C-X-C chemokine receptor type 4 (Homo sapiens), P61073 [H281A]; test: (§3) Antagonist activity at human CXCR4 H281A mutant expressed in COS7 cells coexpressing G protein Gqi4myr assessed as inhibition of CXCL12-induced phosphatidylinositol turnover; format: functional, cell-based; details: COS-7
Sequence of C-X-C chemokine receptor type 4 (Homo sapiens), P61073 [H281A] (P61073 whole entry H281A): as the sequence (P61073 whole entry I284A) above, with H281A, A284I counted along it

[6] = biological target: C-X-C chemokine receptor type 4 (Homo sapiens, UniProt P61073, H281A); test: as §3; format: functional, cell-based, COS-7
Sequence of C-X-C chemokine receptor type 4 (Homo sapiens, UniProt P61073, H281A) (P61073 whole entry H281A): as the sequence (P61073 whole entry I284A) above, with H281A, A284I counted along it

[7] = tested on: C-X-C chemokine receptor type 4 (Homo sapiens), P61073 [Y255A]; test: (§4) Antagonist activity at human CXCR4 Y255A mutant expressed in COS7 cells coexpressing G protein Gqi4myr assessed as inhibition of CXCL12-induced phosphatidylinositol turnover; format: functional, cell-based; details: COS-7
[8] = biological target: C-X-C chemokine receptor type 4 (Homo sapiens, UniProt P61073, Y255A); test: as §4; format: functional, cell-based, COS-7
[9] = tested on: C-X-C chemokine receptor type 4 (Homo sapiens), P61073 [L120F]; test: (§5) Antagonist activity at human CXCR4 L120F mutant expressed in COS7 cells coexpressing G protein Gqi4myr assessed as inhibition of CXCL12-induced phosphatidylinositol turnover; format: functional, cell-based; details: COS-7
[10] = biological target: C-X-C chemokine receptor type 4 (Homo sapiens, UniProt P61073, L120F); test: as §5; format: functional, cell-based, COS-7
[11] = tested on: C-X-C chemokine receptor type 4 (Homo sapiens), P61073 [D262N]; test: (§6) Antagonist activity at human CXCR4 D262N mutant expressed in COS7 cells coexpressing G protein Gqi4myr assessed as inhibition of CXCL12-induced phosphatidylinositol turnover; format: functional, cell-based; details: COS-7
[12] = biological target: C-X-C chemokine receptor type 4 (Homo sapiens, UniProt P61073, D262N); test: as §6; format: functional, cell-based, COS-7
[13] = tested on: C-X-C chemokine receptor type 4 (Homo sapiens), P61073 [V196A]; test: (§7) Antagonist activity at human CXCR4 V196A mutant expressed in COS7 cells coexpressing G protein Gqi4myr assessed as inhibition of CXCL12-induced phosphatidylinositol turnover; format: functional, cell-based; details: COS-7
Sequence of C-X-C chemokine receptor type 4 (Homo sapiens), P61073 [V196A] (P61073 whole entry V196A): as the sequence (P61073 whole entry I284A) above, with V196A, A284I counted along it

[14] = biological target: C-X-C chemokine receptor type 4 (Homo sapiens, UniProt P61073, V196A); test: as §7; format: functional, cell-based, COS-7
Sequence of C-X-C chemokine receptor type 4 (Homo sapiens, UniProt P61073, V196A) (P61073 whole entry V196A): as the sequence (P61073 whole entry I284A) above, with V196A, A284I counted along it

[15] = tested on: C-X-C chemokine receptor type 4 (Homo sapiens), P61073 [T287A]; test: (§8) Antagonist activity at human CXCR4 T287A mutant expressed in COS7 cells coexpressing G protein Gqi4myr assessed as inhibition of CXCL12-induced phosphatidylinositol turnover; format: functional, cell-based; details: COS-7
[16] = biological target: C-X-C chemokine receptor type 4 (Homo sapiens, UniProt P61073, T287A); test: as §8; format: functional, cell-based, COS-7
[17] = biological target: C-X-C chemokine receptor type 4 (Homo sapiens, UniProt P61073); test: Antagonist activity at human wild type CXCR4 expressed in COS7 cells coexpressing G protein Gqi4myr assessed as inhibition of CXCL12-induced phosphatidylinositol turnover; format: functional, cell-based, COS-7
Sequence of C-X-C chemokine receptor type 4 (Homo sapiens, UniProt P61073) (P61073 whole entry): as the sequence (P61073 whole entry I284A) above, with A284I counted along it

[18] = tested on: C-X-C chemokine receptor type 4 (Homo sapiens), P61073 [H203A]; test: (§9) Antagonist activity at human CXCR4 H203A mutant expressed in COS7 cells coexpressing G protein Gqi4myr assessed as inhibition of CXCL12-induced phosphatidylinositol turnover; format: functional, cell-based; details: COS-7
Sequence of C-X-C chemokine receptor type 4 (Homo sapiens), P61073 [H203A] (P61073 whole entry H203A): as the sequence (P61073 whole entry I284A) above, with H203A, A284I counted along it

[19] = biological target: C-X-C chemokine receptor type 4 (Homo sapiens, UniProt P61073, H203A); test: as §9; format: functional, cell-based, COS-7
Sequence of C-X-C chemokine receptor type 4 (Homo sapiens, UniProt P61073, H203A) (P61073 whole entry H203A): as the sequence (P61073 whole entry I284A) above, with H203A, A284I counted along it

[20] = biological target: C-X-C chemokine receptor type 4 (Homo sapiens, UniProt P61073, I259W); test: (§10) Antagonist activity at human CXCR4 I259W mutant expressed in COS7 cells coexpressing G protein Gqi4myr assessed as inhibition of CXCL12-induced phosphatidylinositol turnover; format: functional, cell-based, COS-7
Sequence of C-X-C chemokine receptor type 4 (Homo sapiens, UniProt P61073, I259W) (P61073 whole entry I259W): as the sequence (P61073 whole entry I284A) above, with I259W, A284I counted along it

[21] = tested on: C-X-C chemokine receptor type 4 (Homo sapiens), P61073 [I259W]; test: as §10; format: functional, cell-based; details: COS-7
Sequence of C-X-C chemokine receptor type 4 (Homo sapiens), P61073 [I259W] (P61073 whole entry I259W): as the sequence (P61073 whole entry I284A) above, with I259W, A284I counted along it

[22] = tested on: C-X-C chemokine receptor type 4 (Homo sapiens), P61073 [H113A]; test: (§11) Antagonist activity at human CXCR4 H113A mutant expressed in COS7 cells coexpressing G protein Gqi4myr assessed as inhibition of CXCL12-induced phosphatidylinositol turnover; format: functional, cell-based; details: COS-7
[23] = biological target: C-X-C chemokine receptor type 4 (Homo sapiens, UniProt P61073, H113A); test: as §11; format: functional, cell-based, COS-7
[24] = biological target: C-X-C chemokine receptor type 4 (Homo sapiens, UniProt P61073, E288A); test: (§12) Antagonist activity at human CXCR4 E288A mutant expressed in COS7 cells coexpressing G protein Gqi4myr assessed as inhibition of CXCL12-induced phosphatidylinositol turnover; format: functional, cell-based, COS-7
[25] = tested on: C-X-C chemokine receptor type 4 (Homo sapiens), P61073 [E288A]; test: as §12; format: functional, cell-based; details: COS-7
[26] = tested on: C-X-C chemokine receptor type 4 (Homo sapiens), P61073 [A175F]; test: (§13) Antagonist activity at human CXCR4 A175F mutant expressed in COS7 cells coexpressing G protein Gqi4myr assessed as inhibition of CXCL12-induced phosphatidylinositol turnover; format: functional, cell-based; details: COS-7
[27] = biological target: C-X-C chemokine receptor type 4 (Homo sapiens, UniProt P61073, A175F); test: as §13; format: functional, cell-based, COS-7
[28] = tested on: C-X-C chemokine receptor type 4 (Homo sapiens), P61073 [F172A]; test: (§14) Antagonist activity at human CXCR4 F172A mutant expressed in COS7 cells coexpressing G protein Gqi4myr assessed as inhibition of CXCL12-induced phosphatidylinositol turnover; format: functional, cell-based; details: COS-7
[29] = biological target: C-X-C chemokine receptor type 4 (Homo sapiens, UniProt P61073, F172A); test: as §14; format: functional, cell-based, COS-7
[30] = biological target: C-X-C chemokine receptor type 4 (Homo sapiens, UniProt P61073, Q200W); test: (§15) Antagonist activity at human CXCR4 Q200W mutant expressed in COS7 cells coexpressing G protein Gqi4myr assessed as inhibition of CXCL12-induced phosphatidylinositol turnover; format: functional, cell-based, COS-7
Sequence of C-X-C chemokine receptor type 4 (Homo sapiens, UniProt P61073, Q200W) (P61073 whole entry Q200W): as the sequence (P61073 whole entry I284A) above, with Q200W, A284I counted along it

[31] = tested on: C-X-C chemokine receptor type 4 (Homo sapiens), P61073 [Q200W]; test: as §15; format: functional, cell-based; details: COS-7
Sequence of C-X-C chemokine receptor type 4 (Homo sapiens), P61073 [Q200W] (P61073 whole entry Q200W, the tested form may be a part): as the sequence (P61073 whole entry I284A) above, with Q200W, A284I counted along it

[32] = biological target: C-X-C chemokine receptor type 4 (Homo sapiens, UniProt P61073, I259A); test: (§16) Antagonist activity at transmembrane domain 6 of human CXCR4 I259A mutant expressed in COS7 cells coexpressing G protein Gqi4myr assessed as inhibition of CXCL12-induced phosphatidylinositol turnover; format: functional, cell-based, COS-7
[33] = tested on: C-X-C chemokine receptor type 4 (Homo sapiens), P61073 [I259A]; test: as §16; format: functional, cell-based; details: COS-7
[34] = tested on: C-X-C chemokine receptor type 4 (Homo sapiens), P61073 [D171N]; test: (§17) Antagonist activity at human CXCR4 D171N mutant expressed in COS7 cells coexpressing G protein Gqi4myr assessed as inhibition of CXCL12-induced phosphatidylinositol turnover; format: functional, cell-based; details: COS-7
[35] = biological target: C-X-C chemokine receptor type 4 (Homo sapiens, UniProt P61073, D171N); test: as §17; format: functional, cell-based, COS-7

- Ki [1]: 12 µM
- logIC50 [2]: -4.91
- logIC50 [3]: -6.38
- Ki [4]: 0.42 µM
- logIC50 [5]: -5.75
- Ki [6]: 1.8 µM
- logIC50 [7]: -5.05
- Ki [8]: 8.8 µM
- logIC50 [9]: -6.36
- Ki [10]: 0.44 µM
- logIC50 [11]: -5.64
- Ki [12]: 2.3 µM
- logIC50 [13]: -5.88
- Ki [14]: 1.3 µM
- logIC50 [15]: -6.46
- Ki [16]: 0.34 µM
- Ki [17]: 1.7 µM
- logIC50 ([17]; COS-7): -5.76
- logIC50 [18]: -5.14
- Ki [19]: 7.2 µM
- Ki [20]: 3.1 µM
- logIC50 [21]: -5.5
- logIC50 [22]: -4.74
- Ki [23]: 18 µM
- Ki [24]: 11 µM
- logIC50 [25]: -4.96
- logIC50 [26]: -3.89
- Ki [27]: 128 µM
- logIC50 [28]: -5.92
- Ki [29]: 0.17 µM
- Ki [30]: 7.2 µM
- logIC50 [31]: -5.14
- Ki [32]: 0.91 µM
- logIC50 [33]: -6.04
- logIC50 [34]: -4.85
- Ki [35]: 14 µM
SMILES: c1ccc(CNCc2ccc(CN3CCCNCCNCCCNCC3)cc2)cc1
